{"source": "patent US10294211B2", "about": "“Process for isolating and purifying ambrox” (Givaudan SA, priority 2015, dated 2019)", "key": {"[1]": {"experiment": "Sensory analysis: odour threshold", "description": "(§1) Purpose: to carry out a sensory analysis of (−)-Ambrox and the compounds (II), (III) and (IV) formed in the crude material and in the crystallised material."}, "[2]": {"experiment": "Sensory analysis: GC-detection threshold and odour description", "conditions": "for GC-detection threshold / odour description: sensory analysis; for odour description: in words", "description": "as §1"}}, "data": [{"compound": "CC1(C)CCC[C@]2(C)[C@H]3CCO[C@]3(C)CC[C@@H]12", "note": "[(−)-Ambrox]", "values": [{"measurement": "Odour Threshold", "setting": "[1]; sensory analysis", "result": 0.2, "unit": "ng/L"}]}, {"compound": "CC1(C)CCC[C@@]2(C)[C@H]1CC[C@]1(C)OCC[C@@H]21", "note": "[Compound (IV)]", "values": [{"measurement": "GC-detection threshold", "setting": "[2]", "result": "5 to 10", "unit": "ng"}, {"measurement": "odour description", "setting": "[2]", "result": "weak, IsoE, woody"}, {"measurement": "odour description", "setting": "[2]; listed as IV", "result": "weaker odour"}]}, {"compound": "C/C1=C/CCO[C@@]2(C)CCCC(C)(C)[C@@H]2CC1", "note": "[Compound (II)]", "values": [{"measurement": "detection threshold", "setting": "[1]; as stated in the description", "result": "> 500", "unit": "ng/L"}, {"measurement": "GC-detection threshold", "setting": "[2]", "result": "> 500", "unit": "ng"}, {"measurement": "odour description", "setting": "[2]", "result": "“odorless”"}, {"measurement": "odour description", "setting": "[2]; listed as II", "result": "weaker odour"}, {"measurement": "odour description", "setting": "[2]; listed as compound of formula (II)", "result": "practically odourless"}]}, {"compound": "CC1(C)CCC[C@@]2(C)[C@H]1CC[C@@]1(C)OCC[C@@H]21", "note": "[Compound (III)]", "values": [{"measurement": "odor weaker than (−)-Ambrox", "setting": "[2]; compared with (−)-Ambrox", "result": "about 10 fold"}, {"measurement": "GC-detection threshold", "setting": "[2]", "result": "circa 2 ng"}, {"measurement": "odour description", "setting": "[2]; listed as Compound III", "result": "essentially odorless"}, {"measurement": "odour description", "setting": "[2]; listed as III", "result": "weaker odour"}, {"measurement": "GC-threshold relative to (−)-Ambrox", "setting": "[2]; times higher than (−)-Ambrox", "result": "about 10 ×"}]}]}
